In patent publication US20040053219A1, “Method for analysing human immunodeficiency virus (HIV) phenotypic characteristics” (priority 2000, published 2004):
Like-named read-outs stand apart in the source and are kept apart here.

How the values were obtained:
[1] = tested on: recombinant virus, specimen R5 (215Y, 41L, 74V, 100I, 103N); test: RVA susceptibility to RTI, recombinant virus from patient specimen R5; assay type: cell-based, HIV-1; settings: for Resistance Index (geometric mean): specimen R5, genotype 215Y, 41L, 74V, 100I, 103N, IC50 ratio to NL43, '>' = IC50 above the detectable range in all tests; for susceptibility / level of resistance (in words): specimen R5
Protocol: (§1) The determination of the susceptibility of an HIV virus is performed as follows: 293 T cells are transfected with 7.5 μg of pSRT plasmid linearised with NruI, 0.1 μg of pVSV-G plasmid and 0.5 and 1 μg of product from the HIV reverse transcriptase PCR reaction. The transfection precipitate is removed from the cells after 18 hours of incubation and the fresh growth medium is added. After 24 hours of culture, the supernatant is clarified by centrifugation (500 g, 15 minutes) and transferred on P4 indicator cells which have been pre-incubated with serial dilutions of a reverse transcriptase inhibitor, in triplicate wells, for four hours. The range of inhibitor concentrations used varies according to the compounds. The signal produced by activating the marker gene was developed with CPRG for 48 hours, as for the analysis of the susceptibility to a reverse transcriptase inhibitor and the IC50 index was calculated using the median effect equation.
(§2) The reproducibility of the method to determine the susceptibility of recombinant virus (RVA) to reverse transcriptase inhibitors (RTI) was evaluated with a series of tests on 5 specimens, selected so as to represent a wide range of susceptibility profiles, between 4 and 8 tests per specimen, using RNA preparations and separate PCR reactions.
(§3) (b) The Resistance Index is the ratio of the IC50 in the specimen with reference to that of NL43 determined in parallel.

[2] = tested on: 22 viruses from specimens of patients with a standard treatment; test: RVA susceptibility to RTI, panel of 22 patient viruses compared with NL43; assay type: cell-based, HIV-1; settings: for median RI (Resistance Index): median over 22 viruses, 3 RVA replicates, reference NL43
Protocol: as §1
To determine whether NL43 is a suitable reference virus for comparison with clinical isolates, a panel of specimens taken from patients with a standard treatment were tested on 3 RVA replicates for their susceptibility to reverse transcriptase inhibitors.

NL4-3 reference virus = test: Recombinant virus assay (RVA): susceptibility to reverse transcriptase inhibitors, single replication cycle, P4 indicator cells; assay type: cell-based, HIV-1
Protocol: as §1
The pSRT plasmid comprising a deletion in the region coding for pol ranging from reverse transcriptase codon 24 (base 2618) to reverse transcriptase codon 432 (base 3872) includes all the mutations associated with a resistance phenomenon known to date. The homologous sequences of the PCR reverse transcriptase product ranging 88 base pairs upstream and 186 base pairs downstream from the deletion in pSRT. The transfections to determine the susceptibility to reverse transcriptase inhibitors are performed with a 293T cell line with a strong capacity to be transfected rather than with HeLa cells. This is not a problem since the cells are eliminated from the supernatant containing the virus by centrifugation before the transfer of P4 cells.
Given that the early phases of virus replication, including reverse transcription, take place in indicator P4 cells in this type of determination, these cells are treated with serial dilutions of reverse transcriptase inhibitors.
(§4) The inhibitor concentration ranges are selected as a function of the cellular toxicity of each compound and the IC50/IC90 ratio for the susceptibility of resistant isolates (Table 1). […] A range of four dilutions in series, starting at 200 μM, was used for abacavir, enabling the detection of up to 60 times more resistance.
For RVA reverse transcriptase, the IC50 index is used rather than the IC90 index since the detection of the IC90 index for resistant viruses could require toxic levels of compound for most reverse transcriptase inhibitors.

[3] = tested on: recombinant virus, specimen R1 (69N/T, 70R); test: RVA susceptibility to RTI, recombinant virus from patient specimen R1; assay type: cell-based, HIV-1; settings: specimen R1, genotype 69N/T, ratio of IC50 of specimen to NL43 in parallel
Protocol: as §1, §2, §3

[4] = tested on: recombinant virus, specimen R4 (41L, 67N, 69D, 184V, 190A, H208Y, 210W, 215Y); test: RVA susceptibility to RTI, recombinant virus from patient specimen R4; assay type: cell-based, HIV-1; settings: specimen R4, genotype 41L, IC50 ratio to NL43, '>' = IC50 above the detectable range in all tests
Protocol: as §1, §2, §3

[5] = tested on: recombinant virus, specimen R2 (multi-compound resistance complex 62V, 75I, 77L, 116Y, 151M; 184V; 181C, 190A); test: RVA susceptibility to RTI, recombinant virus from patient specimen R2; assay type: cell-based, HIV-1; settings: specimen R2, genotype 41L, 67N, 69N, 751, 77L, 115F, 208Y, 215F, 219Q, IC50 ratio to NL43, '>' = IC50 above the detectable range in all tests
Protocol: as §1, §2, §3

[6] = tested on: recombinant virus, specimen R3 (184V, 215F); test: RVA susceptibility to RTI, recombinant virus from patient specimen R3; assay type: cell-based, HIV-1; settings: specimen R3, genotype 184V, 21SF; IC50 ratio to NL43; '>' = IC50 above the detectable range in all tests
Protocol: as §1, §2, §3

P4 cells = assay type: cell-based; settings: cellular toxicity for P4 indicator cells
Protocol: as §4

resistant virus LAI-L91H = test: Susceptibility of recombinant HIV viruses to fusion inhibitors: LAI-L91H; assay type: cell-based, HIV-1; settings: reference virus not given
From the text: (§5) The invention also relates to an analytical method to determine the susceptibility of an HIV virus to a fusion inhibiting compound targeting HIV-1 gp41 protein, consisting of performing the amplification in step b either with the pair of primers SEQ ID NO: 13, SEQ ID No: 14 followed by a second amplification with the pair of primers SEQ ID No: 15, SEQ ID No: 16, or with the pair of primers SEQ ID No: 17, SEQ ID No: 18 followed by a second amplification with the pair of primers SEQ ID No: 18, SEQ ID No: 16, adding said fusion inhibiting compound or not, possibly at different concentrations, during the culture of the cell host obtained in step e, before step f and comprising in step g the comparison of the expression of the marker gene with and without fusion inhibiting compound targeting HIV-1 gp41.
The recombinations obtained by performing the amplification of the step (b) with the pair of primers FuA: 5′[…]3′ (SEQ ID No: 23) et FuB: 5′ […]3′ (SEQ ID No: 24) followed by a second amplification step, performed with the primer FuC: 5′[…]3′ (SEQ ID No: 25) and a mixture of the following primers: FuD1: 5′[…]3′ (SEQ ID No: 26) FuD2: 5′[…]3′ (SEQ ID No: 27) are highly efficient. […]
The increase of the IC50index of the resistant virus LAI-L91H (Labrosse B. et al. J Virol. 2000 vol 74 pages 2142-2150) by reference to RPR103611 has been measured.

[7] = tested on: highly resistant virus NL-DIM; test: Susceptibility of recombinant HIV viruses to fusion inhibitors: NL-DIM; assay type: cell-based, HIV-1
From the text: as §5, with “gp41. […]” for “gp41.”
(§6) The IC50 index for a highly resistant virus NL-DIM ( Rimski L. T. et al. J. Virol. 1998, vol 72, pages 986-993) and for the NL4.3 virus (which is partially resistant) has been measured by reference to the DP178 inhibitor.

[8] = tested on: NL4.3 virus (partially resistant); test: Susceptibility of recombinant HIV viruses to fusion inhibitors: NL4.3; assay type: cell-based, HIV-1
From the text: as §5, with “gp41. […]” for “gp41.”
as §6

[9] = Human immunodeficiency virus 1, NL43, NL4-3 reference virus, P4 cells, geometric mean of 20 repeated tests, read-out: Geometric mean IC50
[10] = Human immunodeficiency virus 1, NL43, read-out: Geometric mean IC50

Compound | Resistance Index (geometric mean) [1] | IC50 (NL4-3 reference virus; [9]) [nM] | Resistance Index (geometric mean) [3] | susceptibility / level of resistance (in words) [1] | Resistance Index (geometric mean) [4] | Resistance Index (geometric mean) [5] | Resistance Index (geometric mean) [6] | further results
Nc1ccn([C@@H]2CS[C@H](CO)O2)c(=O)n1 [3TC, lamivudine] | 1.8 | 1510 | 1.3 |  |  |  |  | median RI (Resistance Index) [2]: ~1.22
Cc1cn([C@H]2C[C@H](N=[N+]=[N-])[C@@H](CO)O2)c(=O)[nH]c1=O [AZT, zidovudine] |  | 18 |  | remains susceptible |  |  |  | 
Nc1nc(NC2CC2)c2ncn([C@H]3C=C[C@@H](CO)C3)c2n1 [Abacavir, abacavir] | 1.7 | 2230 | 1.1 |  | 4.3 | > | 4.3 | IC50 index / toxicity for P4 cells (P4 cells): approximately 250 μM
Cc1cn([C@H]2C=C[C@@H](CO)O2)c(=O)[nH]c1=O [D4T, stavudine] | 1.7 |  | 1.4 |  | 3.6 | 43.5 | 3.2 | median RI (Resistance Index) [2]: approximately 0.92; IC50 (NL4-3 reference virus; [10]): 444 nM
O=c1[nH]cnc2c1ncn2[C@H]1CC[C@@H](CO)O1 [DDI] | 2.6 |  | 1.4 |  | 3.1 | 26.9 | 3.1 | IC50 (NL4-3 reference virus; NL4-3 reference virus, P4 cells, geometric mean of 20 repeated tests, read-out: Geometric mean IC50): 1610 nM
O=C1Nc2ccc(Cl)cc2[C@@](C#CC2CC2)(C(F)(F)F)O1 [Efavirenz, efavirenz] | > |  | 1.0 | high levels of resistance | 1.0 | 74.9 | 1.0 | IC50 (NL4-3 reference virus; [10]): 716 nM
Cc1ccnc2c1NC(=O)c1cccnc1N2C1CC1 [Nevirapine, nevirapine] | 580.5 | 37 | 2.2 | high levels of resistance | 1.2 | > | 1.2 | resistance index ([2]; one virus of the panel with mutation on codon 98 (A for S) of reverse transcriptase): 11.0
C=C(C)[C@@H]1CC[C@]2(C(=O)NCCCCCCCC(=O)N[C@@H](CC(C)C)[C@@H](O)CC(=O)O)CC[C@]3(C)[C@H](CC[C@@H]4[C@@]5(C)CC[C@H](O)C(C)(C)[C@@H]5CC[C@]43C)[C@@H]12 [RPR103611] |  |  |  |  |  |  |  | increase of IC50 index (resistant virus LAI-L91H): more than 100 times
enfuvirtide |  |  |  |  |  |  |  | increase of IC50 index ([7]; NL-DIM by reference to LAI virus (culture adapted)): more than 100 times; increase of IC50 index ([7]; NL-DIM by reference to T5A1 virus (primary plasma virus)): more than 80 times; increase of IC50 index ([8]; NL4.3 by reference to LAI): 12,5 times; increase of IC50 index ([8]; NL4.3 by reference to T5A1 virus): 10 times
